Target: T1, Androgen receptor (Homo sapiens, UniProt P10275)
T1 sequence (P10275 whole entry): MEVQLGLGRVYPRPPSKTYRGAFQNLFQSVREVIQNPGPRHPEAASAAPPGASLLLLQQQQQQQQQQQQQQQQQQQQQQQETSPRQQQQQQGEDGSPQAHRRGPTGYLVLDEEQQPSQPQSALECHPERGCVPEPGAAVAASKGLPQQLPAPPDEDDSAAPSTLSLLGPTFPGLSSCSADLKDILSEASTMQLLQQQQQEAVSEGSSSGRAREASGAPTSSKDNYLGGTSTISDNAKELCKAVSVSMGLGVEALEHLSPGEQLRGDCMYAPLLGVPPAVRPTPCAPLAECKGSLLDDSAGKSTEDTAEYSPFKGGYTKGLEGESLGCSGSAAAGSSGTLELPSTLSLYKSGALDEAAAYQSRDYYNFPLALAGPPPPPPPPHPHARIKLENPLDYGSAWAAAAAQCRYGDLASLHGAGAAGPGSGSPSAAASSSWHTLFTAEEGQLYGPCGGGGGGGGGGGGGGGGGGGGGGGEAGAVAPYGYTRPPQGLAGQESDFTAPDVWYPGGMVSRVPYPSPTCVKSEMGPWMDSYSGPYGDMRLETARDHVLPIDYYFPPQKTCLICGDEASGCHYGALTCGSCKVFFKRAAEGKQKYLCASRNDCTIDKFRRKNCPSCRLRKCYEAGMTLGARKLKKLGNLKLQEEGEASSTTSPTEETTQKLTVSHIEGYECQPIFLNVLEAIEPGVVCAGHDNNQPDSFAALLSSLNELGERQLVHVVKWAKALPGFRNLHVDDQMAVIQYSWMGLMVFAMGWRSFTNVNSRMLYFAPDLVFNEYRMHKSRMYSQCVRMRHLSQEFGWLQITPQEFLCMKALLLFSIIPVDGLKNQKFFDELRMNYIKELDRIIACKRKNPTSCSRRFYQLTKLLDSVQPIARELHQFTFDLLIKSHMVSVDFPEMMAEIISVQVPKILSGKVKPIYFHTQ
Experiment: Modulation of AR in human LNCAP cells transfected with PSA reporter gene assessed as inhibition of R1881-induced PSA luciferase activity pretreated for 1 hr followed by R1881 addition and measured after 24 hrs by luciferase assay
Format: cell-based

Row | IC50 | SMILES
1 | < 500 nM | Cc1cnc(NS(C)(=O)=O)nc1COc1ccc(C(C)(C)c2cc(Cl)c(OCCCl)c(C#N)c2)cc1
2 | < 500 nM | CC(C)(c1ccc(OCc2ncc(NS(C)(=O)=O)s2)cc1)c1cc(Cl)c(OCCCl)c(C#N)c1
3 | < 500 nM | CC(C)(c1ccc(OCc2cnc(NS(C)(=O)=O)nc2)cc1)c1cc(Cl)c(OCCCl)c(C#N)c1
4 | < 500 nM | Cc1nc(NS(C)(=O)=O)nc(COc2ccc(C(C)(C)c3cc(Cl)c(OCCCl)c(C#N)c3)cc2)c1C
5 | < 500 nM | CC(C)(c1ccc(OCc2nc(NS(C)(=O)=O)cs2)cc1)c1cc(Cl)c(OCCCl)c(C#N)c1
6 | < 500 nM | CC(C)(c1ccc(OCc2cnc(NS(C)(=O)=O)o2)cc1)c1cc(Cl)c(OCCCl)c(C#N)c1
7 | < 500 nM | CC(C)(c1ccc(OCc2cnc(Cl)o2)cc1)c1cc(Cl)c(OCCCl)c(C#N)c1

Second part, the compound before the results:

Row | SMILES | IC50
8 | CC(C)(c1ccc(OCc2ccnc(NS(C)(=O)=O)n2)cc1)c1cc(F)c(OCCCl)c(Cl)c1 | 500 nM
9 | CSc1nc(C)c(COc2ccc(C(C)(C)c3cc(Cl)c(OCCCl)c(C#N)c3)cc2)o1 | < 500 nM
10 | CC(C)S(=O)(=O)Nc1nc(COc2ccc(C(C)(C)c3cc(Cl)c(OCCCl)c(C#N)c3)cc2)co1 | 500 nM
11 | CC(C)(c1ccc(OCc2ccnc(NS(C)(=O)=O)n2)cc1)c1cc(Cl)c(OCCCl)c(Cl)c1 | < 500 nM
12 | CC(C)S(=O)(=O)c1nc(COc2ccc(C(C)(C)c3cc(Cl)c(OCCCl)c(C#N)c3)cc2)co1 | < 500 nM
